Reference: patent US20180028516A1, “METHODS AND DEVICES FOR THE TREATMENT OF OCULAR DISEASES IN HUMAN SUBJECTS” (CLEARSIDE BIOMEDICAL, INC., priority 2012, published 2018)
“Also recorded” adds a separate entry of the source.

Tests used:
[1] = test system: model of acute posterior uveitis; test: Porcine model of acute posterior uveitis, Hackett/McDonald scoring (Example 12); format: in vivo, pigs
Procedure: In this study, the effects of microneedle injection of triamcinolone acetonide (TA) into the suprachoroidal space (SCS) were compared to the effects of intravitreal (IVT) TA injection in a model of acute posterior uveitis.
Ten weanling pigs had IVT injection with BSS or lipopolysaccharide (LPS) followed 24 hours later with an injection of 0.2 mg or 2.0 mg of TA into the SCS or by IVT. The SCS was accessed using hollow microneedles provided herein. A measurement of each eye under the Hackett/McDonald scoring system was performed on −1, 0, and 3 days after treatment. Pigs were then euthanized, aqueous and vitreous humor collected for cell counts and protein levels, and the eyes were processed for histopathology.

[2] = Scotopic electroretinography after SCS TA (Example 9); format: in vivo, New Zealand White rabbit; conditions: for Scotopic OdB wave A, Amplitude, Mean / Scotopic OdB wave A, Time, Mean / Scotopic OdB wave B, Amplitude, Mean / Scotopic OdB wave B, Time, Mean: right & left eye
Procedure: (§1) In this study, the ocular tolerability and toxicokinetics of suprachoroidal administration of triamcinolone acetonide (TA) using a microneedle in a GLP study in the New Zealand White rabbit.
(§2) On Day 0, New Zealand White (NZW) rabbits were administered a single bilateral supraehoroidal injection of vehicle, 3.2 mg (80 μL) or 5.2 mg (130 μL) of TA (Triesence®, Alcoa labs) using a 33 g 750 μm microneedle. Clinical observations, slit lamp biomicroscopy with McDonald-Shadduck scoring, intraocular pressure assessment (IOP), electroretinography (ERG), and systemic exposure were assessed up to 26 weeks post-dose. Animals were sacrificed on Day 1, Week 13, and Week 26 for macroscopic observations, ocular toxicokinetics, and ocular histopathology.

[3] = Ophthalmic examinations (slit lamp, fundus) and clinical observations after SCS TA (Example 9); format: in vivo, New Zealand White rabbit
Procedure: as §1, §2

[4] = Ophthalmic examinations and clinical observations after 4 mg SCS TA (Example 16); format: in vivo, New Zealand White rabbit; conditions: single bilateral suprachoroidal injection of 4 mg TA, albino rabbit
Procedure: In this study, the ocular tolerability and toxicokinetics of suprachoroidal administration of Ting triamcinolone acetonide (TA) using microneedle was determined, in the New Zealand White rabbit as an animal model.
On Day 0, New Zealand White (NZW) rabbits (4/sex/group/terminal time point, 48 total) were administered a single bilateral suprachoroidal injection of 100 μL of 4 ma TA (40 mg/mL) or vehicle, using a 33 g 750 μm microneedle. Clinical Observations, body weights, food consumption, slit lamp biomicroscopy with McDonald-Shadduck scoring, indirect ophthalmoscopy, intraocular pressure assessment (IOP), central corneal thickness (CCT), electroretinography (ERG), serum chemistry and hematology, and systemic exposure were assessed up to 13 weeks post-dose. Animals were sacrificed on Day 1 or Week 13 and were evaluated for macroscopic observations at necropsy and ocular histopathology. Four animals/sex were given an additional suprachoroidal administration on Day 90, and will be followed for an additional 13 weeks.

[5] = Ocular histopathology after SCS TA (Example 9); format: in vivo, New Zealand White rabbit
Procedure: as §1, §2

[6] = Ocular toxicokinetics of TA after suprachoroidal or intravitreal injection (Example 8); format: in vivo, pigmented rabbits; conditions: SCS, 2 mg TA, compared with intravitreal
Procedure: in this study, the total amount of triamcinolone acetonide (TA) delivered into live pigmented rabbit eyes when injected, into the suprachoroidal space using a hollow microneedle or into the vitreous using a standard 30 gauge needle was compared.
On Day 0, pigmented rabbits were injected with either intravitreal or bilateral suprachoroidal injections of 2 mg/100 μl TA Triesence® (TA; Alcon Labs). intravitreal injections were performed using a 30 g needle (Becton-Dickinson) and suprachoroidal injections were performed using a 33 g 750 μm microneedle. The residual amount of TA present in the syringe/needle assembly after injection was determined by RP-HPLC. Clinical observations, slit lamp biomicroscopy with McDonald-Shadduck scoring, intraocular pressure assessment (IOP), electroretinography (ERG), and systemic exposure were assessed up to 120 days post-dose. Animals were sacrificed at 30 minutes, 7 days, 30 days, 60 days, and 120 days for macroscopic observations, ocular toxicokinetics, and ocular histopathology.

[7] = 3.2 mg TA/eye SCS, F, 13 weeks post administration
[8] = 5.2 mg TA/eye SCS, F, 13 weeks post administration
[9] = 5.2 mg TA/eye SCS, M, 13 weeks post administration

For `CC1(C)O[C@@H]2C[C@H]3[C@@H]4CCC5=CC(=O)C=C[C@]5(C)[C@@]4(F)[C@@H](O)C[C@]3(C)[C@]2(C(=O)CO)O1` [TA, triamcinolone acetonide], the “dose of TA administered to the SCS giving a reduction in inflammation within 3 days, as share of the dose required intravitreally” value ([1]; 0.2 mg SCS vs 2 mg IVT) was 10%, the “inflammatory response (mean Hackett/McDonald ocular scores)” value ([1]; 2 mg TA SCS after LPS, vs vehicle) was “significant reduction; also recorded: significantly reduces” and the “Scotopic OdB wave A, Amplitude, Mean” value ([2]; 3.2 mg TA/eye SCS, Baseline) was −133.2 μV. The “Scotopic OdB wave A, Time, Mean” value ([2]; 3.2 mg TA/eye SCS, Baseline) was 11.6 ms, the “Scotopic OdB wave B, Amplitude, Mean” value ([2]; 3.2 mg TA/eye SCS, Baseline) was 285.8 μV and the “Scotopic OdB wave B, Time, Mean” value ([2]; 3.2 mg TA/eye SCS, Baseline) was 42.1 ms. The “Scotopic OdB wave A, Amplitude, Mean” value ([2]; 3.2 mg TA/eye SCS, Day 1) was −132 μV, the “Scotopic OdB wave A, Time, Mean” value ([2]; 3.2 mg TA/eye SCS, Day 1) was 11.4 ms and the “Scotopic OdB wave B, Amplitude, Mean” value ([2]; 3.2 mg TA/eye SCS, Day 1) was 276.5 μV. For the same molecule, the “Scotopic OdB wave B, Time, Mean” value ([2]; 3.2 mg TA/eye SCS, Day 1) was 47.5 ms, the “Scotopic OdB wave A, Amplitude, Mean” value ([2]; 3.2 mg TA/eye SCS, Week 13) was −132.6 μV and the “Scotopic OdB wave A, Time, Mean” value ([2]; 3.2 mg TA/eye SCS, Week 13) was 11.7 ms. The “Scotopic OdB wave B, Amplitude, Mean” value ([2]; 3.2 mg TA/eye SCS, Week 13) was 299.8 μV, the “Scotopic OdB wave B, Time, Mean” value ([2]; 3.2 mg TA/eye SCS, Week 13) was 51.1 ms and the “Scotopic OdB wave A, Amplitude, Mean” value ([2]; 5.2 mg TA/eye SCS, Baseline) was −137.3 μV. For the same molecule, the “Scotopic OdB wave A, Time, Mean” value ([2]; 5.2 mg TA/eye SCS, Baseline) was 11.7 ms, the “Scotopic OdB wave B, Amplitude, Mean” value ([2]; 5.2 mg TA/eye SCS, Baseline) was 286.4 μV and the “Scotopic OdB wave B, Time, Mean” value ([2]; 5.2 mg TA/eye SCS, Baseline) was 42.3 ms. The “Scotopic OdB wave A, Amplitude, Mean” value ([2]; 5.2 mg TA/eye SCS, Day 1) was −130.8 μV, the “Scotopic OdB wave A, Time, Mean” value ([2]; 5.2 mg TA/eye SCS, Day 1) was 11.4 ms and the “Scotopic OdB wave B, Amplitude, Mean” value ([2]; 5.2 mg TA/eye SCS, Day 1) was 265.7 μV. For the same molecule, the “Scotopic OdB wave B, Time, Mean” value ([2]; 5.2 mg TA/eye SCS, Day 1) was 43.1 ms, the “Scotopic OdB wave A, Amplitude, Mean” value ([2]; 5.2 mg TA/eye SCS, Week 13) was −117.1 μV and the “Scotopic OdB wave A, Time, Mean” value ([2]; 5.2 mg TA/eye SCS, Week 13) was 12.6 ms. The “Scotopic OdB wave B, Amplitude, Mean” value ([2]; 5.2 mg TA/eye SCS, Week 13) was 264.6 μV, the “Scotopic OdB wave B, Time, Mean” value ([2]; 5.2 mg TA/eye SCS, Week 13) was 45.7 ms and the “effect on a-wave or b-wave implicit time or amplitude (scotopic ERG)” value ([2]; 3.2 or 5.2 mg TA SCS) was “no administration or TA-related effect”. For the same molecule, the “Conjunctival congestion (slight, transient), animals with finding” value [3, 7] was 2, the “Conjunctival discharge (slight, transient), animals with finding” value [3, 7] was 2 and the “Corneal Staining (slight, transient), animals with finding” value (“Corneal Staining (slight, transient)” for short) [3, 7] was 1. The “Hyperemia (severe, transient), animals with finding” value [3, 7] was 1, the “Lens Defect (anatomic defect unrelated to administration), animals with finding” value [3, 7] was 1 and the “Corneal Staining (slight, transient)” value ([3]; 3.2 mg TA/eye SCS, M, 13 weeks post administration) was 1. The “Conjunctival discharge (slight, transient), animals with finding” value [3, 8] was 1, the “Corneal Staining (slight, transient)” value [3, 8] was 2 and the “Conjunctival congestion (slight, transient), animals with finding” value [3, 9] was 1. For the same molecule, the “Corneal Staining (slight, transient)” value [3, 9] was 4, the “adverse effects on clinical observations, body weight, or ophthalmic examinations” value ([3]; 3.2 or 5.2 mg TA SCS) was “no adverse effects” and the “adverse effects related to treatment” value ([3]; 3.2 or 5.2 mg TA SCS) was “no observed adverse effects”. For the same molecule, the “findings during slit lamp biomicroscopy and fundus examination” value ([3]; 3.2 or 5.2 mg TA SCS, up to 13 weeks) was “generally mild and transient in nature”, the tolerability [4] was “well tolerated” and the “adverse effects related to the method of administration or treatments, as assessed by histopathology” value ([5]; 3.2 or 5.2 mg TA SCS) was “no adverse effects”. The “inflammatory cells and test article in the suprachoroidal space (histopathology)” value ([5]; 3.2 or 5.2 mg TA SCS) was “observed in the suprachoroidal space of TA-treated animals on Day 1 but not Week 13”, the “Ciliary process edema, animals with finding” value (from here on “Ciliary process edema, animals”) ([5]; Day 1, 3.2 mg TA/eye SCS, F) was 4 and the “Corneal epithelial thinning, animals with finding” value (shortened to “Corneal epithelial thinning”) ([5]; Day 1, 3.2 mg TA/eye SCS, F) was 2. For the same molecule, the “Inflammatory cells in SCS, animals with finding” value (from here on “Inflammatory cells in SCS”) ([5]; Day 1, 3.2 mg TA/eye SCS, F) was 4, the “TA in SCS, animals with finding” value ([5]; Day 1, 3.2 mg TA/eye SCS, F) was 5 and the “Ciliary process edema, animals” value ([5]; Day 1, 3.2 mg TA/eye SCS, M) was 4. The “Conjunctival subepithelial inflammatory cells, animals with finding” value ([5]; Day 1, 3.2 mg TA/eye SCS, M) was 3, the “Corneal epithelial thinning” value ([5]; Day 1, 3.2 mg TA/eye SCS, M) was 3 and the “Inflammatory cells in SCS” value ([5]; Day 1, 3.2 mg TA/eye SCS, M) was 5. The “TA in SCS, animals with finding” value ([5]; Day 1, 3.2 mg TA/eye SCS, M) was 5, the “Ciliary process edema, animals” value ([5]; Day 1, 5.2 mg TA/eye SCS, F) was 5 and the “Conjunctival subepithelial inflammatory cells, animals with finding” value ([5]; Day 1, 5.2 mg TA/eye SCS, F) was 3. For the same molecule, the “Corneal epithelial thinning” value ([5]; Day 1, 5.2 mg TA/eye SCS, F) was 1, the “Inflammatory cells in SCS” value ([5]; Day 1, 5.2 mg TA/eye SCS, F) was 5 and the “Small area of retinal damage (attributed to needle insertion), animals with finding” value ([5]; Day 1, 5.2 mg TA/eye SCS, F) was 1. For the same molecule, the “TA in SCS, animals with finding” value ([5]; Day 1, 5.2 mg TA/eye SCS, F) was 5, the “Ciliary process edema, animals” value ([5]; Day 1, 5.2 mg TA/eye SCS, M) was 4 and the “Conjunctival subepithelial inflammatory cells, animals with finding” value ([5]; Day 1, 5.2 mg TA/eye SCS, M) was 2. The “Corneal epithelial thinning” value ([5]; Day 1, 5.2 mg TA/eye SCS, M) was 3, the “Inflammatory cells in SCS” value ([5]; Day 1, 5.2 mg TA/eye SCS, M) was 5 and the “TA in SCS, animals with finding” value ([5]; Day 1, 5.2 mg TA/eye SCS, M) was 4. The “Ciliary process edema, animals” value ([5]; Week 13, 3.2 mg TA/eye SCS, F) was 1, the “Dilated choroidal vessels, animals with finding” value ([5]; Week 13, 3.2 mg TA/eye SCS, F) was 1 and the “Small area of retinal damage (attributed to needle insertion), animals with finding” value ([5]; Week 13, 3.2 mg TA/eye SCS, F) was 1. For the same molecule, the “Ciliary process edema, animals” value ([5]; Week 13, 3.2 mg TA/eye SCS, M) was 3, the “Ciliary process edema, animals” value ([5]; Week 13, 5.2 mg TA/eye SCS, F) was 3 and the “Ciliary process edema, animals” value ([5]; Week 13, 5.2 mg TA/eye SCS, M) was 1. For the same molecule, the “Dilated choroidal vessels, animals with finding” value ([5]; Week 13, 5.2 mg TA/eye SCS, M) was 1 and the “ratio of TA Lens:Chroroid and Lens:Retina” value [6] was “much lower”.
